Results reported in ChEMBL document CHEMBL5260855, “Design, synthesis and biological evaluation of simplified analogues of MraY inhibitory natural product with rigid scaffold” (Bioorg Med Chem, 2021).

target: T1, Phospho-N-acetylmuramoyl-pentapeptide-transferase (Staphylococcus aureus, UniProt P0C1R8); experiment: Inhibition of Staphylococcus aureus MraY using UDP-MurNAc-dansylpentapeptide as substrate incubated for 3 hrs by fluorescence based microplate reader analysis
T1 sequence (P0C1R8 whole entry): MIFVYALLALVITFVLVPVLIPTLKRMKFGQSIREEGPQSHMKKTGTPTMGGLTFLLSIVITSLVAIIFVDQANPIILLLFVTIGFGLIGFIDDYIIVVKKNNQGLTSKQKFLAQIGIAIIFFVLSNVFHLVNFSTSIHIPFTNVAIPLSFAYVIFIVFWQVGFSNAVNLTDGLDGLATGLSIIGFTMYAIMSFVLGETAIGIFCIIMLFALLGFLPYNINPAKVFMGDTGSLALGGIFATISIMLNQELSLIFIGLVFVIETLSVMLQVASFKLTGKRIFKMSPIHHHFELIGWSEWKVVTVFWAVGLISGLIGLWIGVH

Row | SMILES | IC50 [nM]
1 | Cc1ccccc1C#C[C@H](O[C@@H]1O[C@H](CN)[C@@H](O)[C@H]1O)[C@H]1O[C@@H](n2ccc(=O)[nH]c2=O)[C@H](O)[C@@H]1O | 2000
2 | NC[C@H]1O[C@@H](O[C@@H](C#Cc2ccc(NC(=O)c3ccccc3)cc2)[C@H]2O[C@@H](n3ccc(=O)[nH]c3=O)[C@H](O)[C@@H]2O)[C@H](O)[C@@H]1O | 1400
3 | NC[C@H]1O[C@@H](O[C@@H](C#Cc2cccc(NS(=O)(=O)c3ccccc3)c2)[C@H]2O[C@@H](n3ccc(=O)[nH]c3=O)[C@H](O)[C@@H]2O)[C@H](O)[C@@H]1O | 950
4 | NC[C@H]1O[C@@H](O[C@@H](CCc2ccccc2)[C@H]2O[C@@H](n3ccc(=O)[nH]c3=O)[C@H](O)[C@@H]2O)[C@H](O)[C@@H]1O | 32000
5 | NC[C@H]1O[C@@H](O[C@@H](C#Cc2cccc(C(=O)O)c2)[C@H]2O[C@@H](n3ccc(=O)[nH]c3=O)[C@H](O)[C@@H]2O)[C@H](O)[C@@H]1O | 1500
6 | NC[C@H]1O[C@@H](O[C@@H](C#Cc2ccc(N)cc2)[C@H]2O[C@@H](n3ccc(=O)[nH]c3=O)[C@H](O)[C@@H]2O)[C@H](O)[C@@H]1O | 300
7 | Cc1cccc(C#C[C@H](O[C@@H]2O[C@H](CN)[C@@H](O)[C@H]2O)[C@H]2O[C@@H](n3ccc(=O)[nH]c3=O)[C@H](O)[C@@H]2O)c1 | 1400
8 | NC[C@H]1O[C@@H](O[C@@H](C#Cc2ccccc2C(=O)O)[C@H]2O[C@@H](n3ccc(=O)[nH]c3=O)[C@H](O)[C@@H]2O)[C@H](O)[C@@H]1O | 5700
9 | C#C[C@H](O[C@@H]1O[C@H](CN)[C@@H](O)[C@H]1O)[C@H]1O[C@@H](n2ccc(=O)[nH]c2=O)[C@H](O)[C@@H]1O | 90000
10 | NC[C@H]1O[C@@H](O[C@@H](C#Cc2ccc(NS(=O)(=O)c3ccccc3)cc2)[C@H]2O[C@@H](n3ccc(=O)[nH]c3=O)[C@H](O)[C@@H]2O)[C@H](O)[C@@H]1O | 1000
11 | NC[C@H]1O[C@@H](O[C@@H](C#Cc2cccc(-c3ccccc3)c2)[C@H]2O[C@@H](n3ccc(=O)[nH]c3=O)[C@H](O)[C@@H]2O)[C@H](O)[C@@H]1O | 650
12 | NC[C@H]1O[C@@H](O[C@@H](C#Cc2ccc(C(=O)O)cc2)[C@H]2O[C@@H](n3ccc(=O)[nH]c3=O)[C@H](O)[C@@H]2O)[C@H](O)[C@@H]1O | 4400
13 | Cc1ccc(C#C[C@H](O[C@@H]2O[C@H](CN)[C@@H](O)[C@H]2O)[C@H]2O[C@@H](n3ccc(=O)[nH]c3=O)[C@H](O)[C@@H]2O)cc1 | 1300
14 | NC[C@H]1O[C@@H](O[C@@H](C#Cc2cccc(N)c2)[C@H]2O[C@@H](n3ccc(=O)[nH]c3=O)[C@H](O)[C@@H]2O)[C@H](O)[C@@H]1O | 1800
15 | NC[C@H]1O[C@@H](O[C@@H](C#Cc2ccc(C(=O)Nc3ccccc3)cc2)[C@H]2O[C@@H](n3ccc(=O)[nH]c3=O)[C@H](O)[C@@H]2O)[C@H](O)[C@@H]1O | 900
16 | NC[C@H]1O[C@@H](O[C@@H](C#Cc2ccccc2N)[C@H]2O[C@@H](n3ccc(=O)[nH]c3=O)[C@H](O)[C@@H]2O)[C@H](O)[C@@H]1O | 2100
17 | NC[C@H]1O[C@@H](O[C@@H](C#Cc2ccccc2)[C@H]2O[C@@H](n3ccc(=O)[nH]c3=O)[C@H](O)[C@@H]2O)[C@H](O)[C@@H]1O | 2000
18 | NC[C@H]1O[C@@H](O[C@@H](C#Cc2cccc(C(=O)Nc3ccccc3)c2)[C@H]2O[C@@H](n3ccc(=O)[nH]c3=O)[C@H](O)[C@@H]2O)[C@H](O)[C@@H]1O | 1100
19 | NC[C@H]1O[C@@H](O[C@@H](C#Cc2ccc(-c3ccccc3)cc2)[C@H]2O[C@@H](n3ccc(=O)[nH]c3=O)[C@H](O)[C@@H]2O)[C@H](O)[C@@H]1O | 590
20 | NC[C@H]1O[C@@H](O[C@@H](C#Cc2cccc(NC(=O)c3ccccc3)c2)[C@H]2O[C@@H](n3ccc(=O)[nH]c3=O)[C@H](O)[C@@H]2O)[C@H](O)[C@@H]1O | 6700

tested on: not listed separately; experiment: Inhibition of bacterial MraY; design: species or system Bacteria

Row | SMILES | IC50 [nM]
21 | CCCCCCCCCCCCCCCCC[C@H]1CN[C@@H]([C@H](O[C@@H]2O[C@H](CN)[C@@H](O)[C@H]2O)[C@H]2O[C@@H](n3ccc(=O)[nH]c3=O)[C@H](O)[C@@H]2O)C(=O)N(C)[C@@H]1C(=O)O | 3.8
22 | CC(C)C[C@H](NC(=O)[C@@H](NC(=O)N[C@H](C(=O)O)C(C)C)[C@@H]1CCNC(=N)N1)C(=O)NCCCN[C@H](C(=O)O)[C@H](O[C@@H]1O[C@H](CN)[C@@H](O)[C@H]1O)[C@H]1O[C@@H](n2ccc(=O)[nH]c2=O)[C@H](O)[C@@H]1O [MURAMYCIN D2] | 25
23 | CCCCCCCCCCCCCCCC[C@H](NC(C)=O)C(=O)NCCCN[C@H](C(=O)O)[C@H](O[C@@H]1O[C@H](CN)[C@@H](O)[C@H]1O)[C@H]1O[C@@H](n2ccc(=O)[nH]c2=O)[C@H](O)[C@@H]1O | 2.7

target: T2, Phospho-N-acetylmuramoyl-pentapeptide-transferase (Bacillus subtilis (strain 168), UniProt Q03521); experiment: Inhibition of Bacillus subtilis MraY
T2 sequence (Q03521 whole entry): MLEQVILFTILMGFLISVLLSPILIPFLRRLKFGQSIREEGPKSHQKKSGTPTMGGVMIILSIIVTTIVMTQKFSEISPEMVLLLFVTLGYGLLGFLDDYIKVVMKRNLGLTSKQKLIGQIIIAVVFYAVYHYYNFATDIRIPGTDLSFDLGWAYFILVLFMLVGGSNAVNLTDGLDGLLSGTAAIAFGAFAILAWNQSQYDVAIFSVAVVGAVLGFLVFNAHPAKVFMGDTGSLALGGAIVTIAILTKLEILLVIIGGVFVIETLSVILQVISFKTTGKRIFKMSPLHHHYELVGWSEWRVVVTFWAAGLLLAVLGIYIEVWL

Row | SMILES | IC50 [nM]
24 | NC[C@H]1O[C@@H](O[C@@H](c2cn(Cc3ccc(Cc4ccc(C(=O)c5ccccc5)cc4)cc3)nn2)[C@H]2O[C@@H](n3ccc(=O)[nH]c3=O)[C@H](O)[C@@H]2O)[C@H](O)[C@@H]1O | 50000
